Consider 19 compounds from patent US20220056019A1, “FARNESOID X RECEPTOR AGONISTS AND USES THEREOF” (Metacrine, Inc., priority 2018, published 2022).

pEC50: −log10 of the molar value.

For this test, the target named is T1, hFXR (Homo sapiens, UniProt Q96RI1).
T1 construct: expressed in transfected cells; host or cells: CV-1 cells
T1 sequence (Q96RI1 1-486): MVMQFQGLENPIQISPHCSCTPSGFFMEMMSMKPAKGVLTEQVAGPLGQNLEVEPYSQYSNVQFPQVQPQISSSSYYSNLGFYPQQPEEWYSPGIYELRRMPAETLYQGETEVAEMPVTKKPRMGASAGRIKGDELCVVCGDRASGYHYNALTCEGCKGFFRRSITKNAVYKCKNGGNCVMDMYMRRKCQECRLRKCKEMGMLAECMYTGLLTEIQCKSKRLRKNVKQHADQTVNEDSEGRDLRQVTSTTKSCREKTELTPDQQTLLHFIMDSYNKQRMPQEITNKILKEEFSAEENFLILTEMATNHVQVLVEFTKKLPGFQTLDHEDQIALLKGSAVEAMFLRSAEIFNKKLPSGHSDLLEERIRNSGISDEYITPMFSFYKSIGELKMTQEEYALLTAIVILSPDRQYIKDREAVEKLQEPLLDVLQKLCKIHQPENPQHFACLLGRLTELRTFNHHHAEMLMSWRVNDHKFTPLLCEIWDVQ
T1 sequence (P19793 1-462 partner): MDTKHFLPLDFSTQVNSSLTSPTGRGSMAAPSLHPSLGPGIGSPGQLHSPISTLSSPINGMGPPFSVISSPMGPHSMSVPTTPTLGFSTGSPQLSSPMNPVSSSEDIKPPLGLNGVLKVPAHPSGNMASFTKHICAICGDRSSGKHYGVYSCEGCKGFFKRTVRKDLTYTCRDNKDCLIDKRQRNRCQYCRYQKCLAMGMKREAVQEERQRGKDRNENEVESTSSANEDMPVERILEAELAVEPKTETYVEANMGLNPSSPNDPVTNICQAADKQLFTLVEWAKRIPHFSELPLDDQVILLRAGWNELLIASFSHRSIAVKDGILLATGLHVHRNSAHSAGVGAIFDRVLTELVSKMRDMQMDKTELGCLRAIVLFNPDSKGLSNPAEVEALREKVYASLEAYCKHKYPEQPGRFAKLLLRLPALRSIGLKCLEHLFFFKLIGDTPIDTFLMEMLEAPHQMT
The experiment in a line: In Vitro FXR Assay (TK): TK-ECRE-luc reporter in transfected CV-1 cells. To be noted: 18 hrs incubation, luminescence. It is filed as cell-based. The procedure, abridged:
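CV-1, DMEM/10% charcoal-stripped FBS, 37 °C 5% CO2. Transfection O/N: hFXR + hRXR + TK-ECRE-luc + pCMX-YFP. Cpds (DMSO serial dil.) 18 h; lyse, read luminescence.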
Compound `CC(C)n1cc(-c2ccnc(N(CC34CCC(C5CCCCC5)(CC3)CC4)C(=O)[C@H]3CC[C@H](OC(=O)N4CC(O)C4)CC3)c2)cn1` [Compound 26.15, 4-(((4-Cyclohexylbicyclo[2.2.2]octan-1-yl)methyl)(4-(1-isopropyl-1H-pyrazol-4-yl)pyridin-2-yl)carbamoyl)cyclohexyl trans-3-hydroxyazetidine-1-carboxylate] had a pEC50 of at least 7.30. `COc1ccc(C23CCC(CN(c4cc(-c5cnn(C(C)C)c5)ccn4)C(=O)[C@H]4CC[C@H](OC(=O)N5CCC5)CC4)(CC2)CC3)cc1C` [Compound 4.52, 4-((4-(1-Isopropyl-1H-pyrazol-4-yl)pyridin-2-yl) ((4-(4-methoxy-3-methylphenyl)bicyclo [2.2.2]octan-1-yl)methyl)carbamoyl)cyclohexyl trans-azetidine-1-carboxylate] had a pEC50 of at least 7.30. As for `COC(=O)N[C@H]1CC[C@H](C(=O)N(CC23CCC(c4ccc(OC)c(C)c4)(CC2)CC3)c2cc(-c3cnn(C(C)C)c3)ccn2)CC1` [Compound 8, Methyl trans-(4-((4-(1-isopropyl-1H-pyrazol-4-yl)pyridin-2-yl)((4-(4-methoxy-3-methylphenyl)bicyclo[2.2.2]octan-1-yl)methyl)carbamoyl)cyclohexyl)carbamate], the figure is at least 7.30; as for `COc1ccc([C@H]2CC[C@H](CN(c3cc(-c4cnn(C(C)C)c4)ccn3)C(=O)[C@H]3CC[C@H](OC(=O)NCC(C)(C)O)CC3)CC2)cc1Cl` [Compound 2.05, (trans)-4-((((trans)-4-(3-Chloro-4-methoxyphenyl)cyclohexyl)methyl)(4-(1-isopropyl-1H-pyrazol-4-yl)pyridin-2-yl)carbamoyl)cyclohexyl (2-hydroxy-2-methylpropyl)carbamate], at least 7.30; as for `COc1ccc(C23CCC(CN(c4cc(-c5cnn(C(C)C)c5)c(F)cn4)C(=O)[C@H]4CC[C@H](OC(=O)NCCCO)CC4)(CC2)CC3)cc1C` [Compound 25.05, 4-((5-Fluoro-4-(1-isopropyl-1H-pyrazol-4-yl)pyridin-2-yl)((4-(4-methoxy-3-methylphenyl)bicyclo[2.2.2]octan-1-yl)methyl)carbamoyl)cyclohexyl trans-(3-hydroxypropyl)carbamate], at least 7.30. The figure for `COc1ccc(C23CCC(CN(C(=O)C4CCC(OC(=O)N5CC(O)C5)CC4)c4cc(C5CCCN(C(C)C)C5)ccn4)(CC2)CC3)cc1C` (stereo not drawn) [Compound 26.18, 4-((4-(1-Isopropylpiperidin-3-yl)pyridin-2-yl)((4-(4-methoxy-3-methylphenyl)bicyclo[2.2.2]octan-1-yl)methyl)carbamoyl)cyclohexyl trans-3-hydroxyazetidine-1-carboxylate] is 5.00 to 6.00; for `COc1ccc(C23CCC(CN(c4cc(-c5coc(C(C)C)n5)ccn4)C(=O)[C@H]4CC[C@H](OC(=O)N5CC(O)C5)CC4)(CC2)CC3)cc1C` [Compound 4.23, 4-((4-(2-Isopropyloxazol-4-yl)pyridin-2-yl)((4-(4-methoxy-3-methylphenyl)bicyclo[2.2.2]octan-1-yl)methyl)carbamoyl) cyclohexyl 3-hydroxyazetidine-trans-1-carboxylate] it is at least 7.30. The figure for `COc1ccc(C23CCC(CN(c4cc(-c5coc(C(C)C)n5)ccn4)C(=O)[C@H]4CC[C@H](OC(=O)NCCCO)CC4)(CC2)CC3)cc1C` [Compound 23.02, 4-((4-(2-Isopropyloxazol-4-yl)pyridin-2-yl)((4-(4-methoxy-3-methylphenyl)bicyclo[2.2.2]octan-1-yl)methyl)carbamoyl)(trans-cyclohexyl)(3-hydroxypropyl)carbamate] is at least 7.30. `COc1ccc([C@H]2CC[C@H](CN(c3cc(-c4cnn(C(C)C)c4)ccn3)C(=O)[C@H]3CC[C@H](OC(=O)N4CCN(C)CC4)CC3)CC2)cc1Cl` [Compound 2.06, trans-4-(((trans-4-(3-Chloro-4-methoxyphenyl)cyclohexyl)methyl)(4-(1-isopropyl-1H-pyrazol-4-yl)pyridin-2-yl)carbamoyl)cyclohexyl 4-methylpiperazine-1-carboxylate] showed a pEC50 of at least 7.30. The figure for `COc1ccc(C23CCC(CN(c4ccc(F)c(-c5cnn(C(C)C)c5)c4)C(=O)[C@H]4CC[C@H](OC(=O)N5CC(CS(C)(=O)=O)C5)CC4)(CC2)CC3)cc1C` [Compound 25.10, 4-((4-Fluoro-3-(1-isopropyl-1H-pyrazol-4-yl)phenyl)((4-(4-methoxy-3-methylphenyl)bicyclo[2.2.2]octan-1-yl)methyl)carbamoyl)cyclohexyl trans-3-((methylsulfonyl)methyl)azetidine-1-carboxylate] is at least 7.30; for `COc1ccc(C23CCC(CN(c4cc(-c5cnc(C6CC6)s5)ccn4)C(=O)[C@H]4CC[C@H](NC(=O)CO)CC4)(CC2)CC3)cc1C` [Compound 9.08, (trans)-N-(4-(2-Cyclopropylthiazol-5-yl)pyridin-2-yl)-4-(2-hydroxyacetamido)-N-((4-(4-methoxy-3-methylphenyl)bicyclo[2.2.]octan-1-yl)methyl)cyclohexanecarboxamide] it is at least 7.30.

In the case of `COc1ccc(C23CCC(CN(c4cc(-c5coc(C6CC6)n5)ccn4)C(=O)[C@H]4CC[C@H](OC(=O)N5CC(O)C5)CC4)(CC2)CC3)cc1C` [Compound 4.02, 4-((4-(2-Cyclopropyloxazol-4-yl)pyridin-2-yl)((4-(4-methoxy-3-methylphenyl)bicyclo[2.2.2]octan-1-yl)methyl)carbamoyl) cyclohexyl 3-hydroxyazetidine-trans-1-carboxylate], the pEC50 is at least 7.30. The figure for `COc1ccc([C@H]2CC[C@H](CN(c3cccc(-c4cnn(C(C)C)c4)c3)C(=O)[C@H]3CC[C@H](OC(=O)NCC(C)(C)O)CC3)CC2)nc1C` [Compound 5.01, trans-4-((3-(1-Isopropyl-1H-pyrazol-4-yl)phenyl)((trans-4-(5-methoxy-6-methylpyridin-2-yl)cyclohexyl)methyl)carbamoyl)cyclohexyl (2-hydroxy-2-methylpropyl) carbamate] is at least 7.30. In turn, `COc1ccc([C@H]2CC[C@H](CN(c3cc(-c4coc(C(C)C)n4)ccn3)C(=O)[C@H]3CC[C@H](OC(=O)N4CCN(C)CC4)CC3)CC2)cc1C` [Compound 2.25, trans-4-((4-(2-Isopropyloxazol-4-yl)pyridin-2-yl)(((trans)-4-(4-methoxy-3-methylphenyl)cyclohexyl)methyl)carbamoyl)cyclohexyl 4-methylpiperazine-1-carboxylate] showed a pEC50 of at least 7.30.

The compound `COc1ccc(C23CCC(CN(c4cncc(-c5cnn(C6(C)CCC6)c5)c4)C(=O)[C@H]4CC[C@H](OC(=O)N5CC(O)C5)CC4)(CC2)CC3)cc1C` [Compound 25.22, 4-(((4-(4-Methoxy-3-methylphenyl)bicyclo[2.2.2]octan-1-yl)methyl)(5-(1-(1-methylcyclobutyl)-1H-pyrazol-4-yl)pyridin-3-yl)carbamoyl)cyclohexyl trans-3-hydroxyazetidine-1-carboxylate] had a pEC50 of at least 7.30.

`CCn1cc(-c2ccnc(N(C[C@H]3CC[C@H](c4ccc(OC)c(C)c4)CC3)C(=O)[C@H]3CC[C@H](OC(=O)N4CC(O)C4)CC3)c2)cn1` [Compound 2.22, trans-4-((4-(1-Ethyl-1H-pyrazol-4-yl)pyridin-2-yl) ((trans-4-(4-methoxy-3-methylphenyl)cyclohexyl)methyl)carbamoyl) cyclohexyl3-hydroxyazetidine-1-carboxylate] gave a pEC50 of at least 7.30.

As to `COc1ccc(C23CCC(CN(c4cc(C5CCN(C(C)C)C5)ccn4)C(=O)[C@H]4CC[C@H](OC(=O)N5CC(O)C5)CC4)(CC2)CC3)cc1C` (stereo partly drawn) [Compound 23.18, 4-((4-(1-(Isopropylpyrrrolidin-3-yl)pyridin-2-yl)((4-(4-methoxy-3-methylphenyl)bicyclo[2.2.2]octan-1-yl)methyl)carbamoyl)cyclo-hexyl trans-3-hydroxyazetidine-1-carboxylate], the pEC50 is 6.00 to 7.30. As for `COc1ccc([C@H]2CC[C@H](CN(c3cccc(-c4cnn(C(C)C)c4)c3)C(=O)[C@H]3CC[C@H](NC(=O)C4CCCCC4)CC3)CC2)cc1C` [Compound 10.01, trans-4-(Cyclohexanecarboxamido)-N-(3-(1-isopropyl-1H-pyrazol-4-yl)phenyl)-N-((trans-4-(4-methoxy-3-methylphenyl)cyclohexyl)methyl) cyclohexanecarboxamide], the figure is 6.00 to 7.30; as for `CCc1nc(-c2ccnc(N(C[C@H]3CC[C@H](c4ccc(OC)c(C)c4)CC3)C(=O)[C@H]3CC[C@H](OC(=O)NCC(C)(C)O)CC3)c2)co1` [Compound 2.49, trans-4-((4-(2-Ethyloxazol-4-yl)pyridin-2-yl)((trans-4-(4-methoxy-3-methylphenyl)cyclohexyl)methyl)carbamoyl)cyclohexyl (2-hydroxy-2-methylpropyl)carbamate], at least 7.30.
